Where “and” joins values, the source holds several entries; their conditions need not be identical. Equal entries are not always repeated. Where two headings read alike, the source gives them in different places.
What was measured:
[1] = Cell viability assay (CellTiter Glo) in a panel of cell lines; format: cell-based, human; conditions: human; for viability at 0.313 µM: log10 conc -6.50446 mol/l; for viability at 1.25 µM: log10 conc -5.90309 mol/l
Procedure: 500–2000 cells were seeded in white, clear bottom 96-well plates (Corning or Perkin Elmer) in 180–200 µl medium per well. The next day, compounds were added using a digital dispenser and a T0 sample was measured for reference. Cells were incubated for 144–192 h, and viability (luminescence) was measured using CellTiter Glo or CellTiter Glo 2.0 (Promega) according to manufacturer’s instructions after equilibrating cells and reagents at room temperature and 10–20 min incubation time while shaking.

KRT80 mRNA = test: qPCR for KRT80 mRNA levels in A549 and NCI-H1568 cells; format: cell-based, human; conditions: for EC50: Homo sapiens
Procedure: 350,000–500,000 cells were seeded in 6-well plates and compounds were added the next day at the indicated concentrations after pre-dilution in medium. Cells were incubated for 18 h, harvested, and RNA was extracted using the RNeasy Mini Kit (Qiagen) according to manufacturer’s instructions. A DNAse digestion step was included. 1 µg RNA was used for cDNA synthesis with the SuperScript VILO cDNA synthesis kit (Invitrogen) according to manufacturer’s instructions. TAQMAN qPCR was then performed using the QuantiTect Multiplex PCR kit (Qiagen) with probes for KRT80 (Hs01372365_m1, Applied Biosystems) and human GAPDH as endogenous control (4326317E, VIC/MGB probe, Primer Limited) for normalisation in a duplex assay over 45 cycles with 100 ng cDNA input. […] Curves were fitted using a 4-parametric logistic model.

SMARCA2 = SMARCA2 (Homo sapiens, UniProt P51531); test: Western blot of SMARCA2 degradation in NCI-H1568 cells; format: cell-based; design: endogenous in cells; host or cells: RKO, NCI-H1568, A549, HCT116, LU99, HCC-364, HCT-15, HCC4006, SK-N-AS
Procedure: Cells were seeded into 6-well plates 24 h before treatment. Next day, several wells were treated with compounds or DMSO as indicated, washed with PBS and lysed with lysis buffer (1% Triton X-100, 150 mM NaCl, 1 mM EDTA, 50 mM Tris pH 7.4, protease inhibitor cocktail (Roche), 50 units/mL benzonase nuclease (Sigma)). Lysates were cleared by centrifugation at 4 °C, at 15,800 × g for 10 min and the supernatants stored at −20 °C. Protein concentration was determined by BCA assay (Pierce) and the absorbance at 562 nm measured by spectrophotometry (NanoDrop ND1000). […] Western blot images were obtained through detection of SMARCA2 (Sigma #HPA029981 RRID:AB_10602406 1:1000), SMARCA4 (Abcam #ab108318 clone EPR3912 RRID:AB_10889900 1:1000), PBRM1 (Bethyl Laboratories #A301-591A RRID:AB_1078808 1:1000), β-actin (Cell Signalling #4970 clone 13E5 RRID:AB_2223172 1:2500) and GAPDH (Abcam #ab9485 RRID:AB_307275 1:2500) antibodies with IRDye 800CW donkey anti-rabbit secondary antibody (LI-COR #926-32213 RRID:AB_621848 1:10000) using a ChemiDoc MP imaging system (Bio-Rad). Western blots were quantified using Image Studio Lite (Licor, version 5.2) with normalisation to loading control and DMSO and further analysed using GraphPad Prism (version 9.2.0).

[2] = SuppFig3a, 10 nM, per replicate
[3] = SuppFig3a, 100 nM, per replicate
[4] = SuppFig3a, 1000 nM, per replicate
[5] = SuppFig3c, compound 100 nM + MG132 10 uM
[6] = SuppFig3c, compound 100 nM + VH298 10 uM
[7] = SuppFig3c, compound 100 nM alone

SMARCA2, sequence (P51531 whole entry): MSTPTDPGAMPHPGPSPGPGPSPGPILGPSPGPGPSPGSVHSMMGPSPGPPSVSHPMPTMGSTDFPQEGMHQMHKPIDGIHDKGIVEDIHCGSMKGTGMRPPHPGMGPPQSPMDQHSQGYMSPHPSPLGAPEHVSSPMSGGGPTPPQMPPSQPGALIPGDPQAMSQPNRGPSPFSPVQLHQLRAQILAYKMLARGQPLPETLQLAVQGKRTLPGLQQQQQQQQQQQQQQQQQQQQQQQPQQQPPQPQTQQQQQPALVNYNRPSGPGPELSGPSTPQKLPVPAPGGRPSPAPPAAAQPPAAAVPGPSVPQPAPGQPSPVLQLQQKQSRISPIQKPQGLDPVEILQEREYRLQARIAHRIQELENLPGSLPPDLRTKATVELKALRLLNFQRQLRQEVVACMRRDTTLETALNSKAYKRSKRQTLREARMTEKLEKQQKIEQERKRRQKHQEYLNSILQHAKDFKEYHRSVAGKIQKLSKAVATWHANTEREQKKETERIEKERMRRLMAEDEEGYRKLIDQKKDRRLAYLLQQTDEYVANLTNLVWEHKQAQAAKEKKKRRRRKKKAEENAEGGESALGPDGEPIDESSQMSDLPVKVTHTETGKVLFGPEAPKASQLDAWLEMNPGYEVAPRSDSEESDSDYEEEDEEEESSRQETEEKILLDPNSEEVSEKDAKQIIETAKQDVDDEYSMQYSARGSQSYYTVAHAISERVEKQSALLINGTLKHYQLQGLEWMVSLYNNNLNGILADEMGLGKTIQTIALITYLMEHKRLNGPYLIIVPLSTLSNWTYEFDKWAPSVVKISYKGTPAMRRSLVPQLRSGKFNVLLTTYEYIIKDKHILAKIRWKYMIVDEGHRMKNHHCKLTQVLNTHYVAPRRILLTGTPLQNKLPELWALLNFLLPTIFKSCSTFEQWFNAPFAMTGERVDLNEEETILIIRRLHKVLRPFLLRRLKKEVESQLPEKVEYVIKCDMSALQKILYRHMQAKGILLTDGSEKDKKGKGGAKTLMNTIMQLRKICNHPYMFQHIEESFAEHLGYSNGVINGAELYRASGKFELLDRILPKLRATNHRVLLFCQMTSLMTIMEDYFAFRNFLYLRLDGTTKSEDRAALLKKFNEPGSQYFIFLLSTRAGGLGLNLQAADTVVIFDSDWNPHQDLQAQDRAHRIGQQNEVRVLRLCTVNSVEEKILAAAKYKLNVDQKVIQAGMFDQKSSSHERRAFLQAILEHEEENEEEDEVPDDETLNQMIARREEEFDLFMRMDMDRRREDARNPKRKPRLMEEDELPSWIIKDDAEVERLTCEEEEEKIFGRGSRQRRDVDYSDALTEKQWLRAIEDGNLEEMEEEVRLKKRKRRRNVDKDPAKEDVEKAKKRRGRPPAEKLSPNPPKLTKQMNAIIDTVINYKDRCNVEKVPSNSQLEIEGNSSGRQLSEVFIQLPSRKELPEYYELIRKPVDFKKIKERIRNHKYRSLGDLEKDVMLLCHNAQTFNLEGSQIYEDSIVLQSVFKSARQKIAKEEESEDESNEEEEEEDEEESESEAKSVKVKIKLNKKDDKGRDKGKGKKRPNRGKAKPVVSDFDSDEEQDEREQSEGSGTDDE

Compound: Cc1ncsc1-c1ccc(C(CCC(C)CCN2CCC(c3ccc4c(c3)n(C3CCCC3)c3nc(=O)c5c(Br)cccc5n43)CC2)NC(=O)C2CC(O)CN2C(=O)C(NC(=O)C2(F)CC2)C(C)(C)C)cc1 (stereo not shown) [ACBI2]
- viability at 0.313 µM ([1]; NCI-H23 cells, NCI-H23): 76.1%
- viability at 1.25 µM ([1]; OV-90 cells, OV-90): 35.5%
- viability at 0.313 µM ([1]; OV-90 cells, OV-90): 45.5%
- viability at 1.25 µM ([1]; SK-MEL-5 cells, SK-MEL-5): 1.81%
- viability at 0.313 µM ([1]; SK-MEL-5 cells, SK-MEL-5): 2.34%
- viability at 1.25 µM ([1]; TOV-112D cells, TOV-112D): 91.7%
- viability at 0.313 µM ([1]; TOV-112D cells, TOV-112D): 103%
- KRT80 mRNA levels (KRT80 mRNA; 18 h treatment): decreased mRNA levels of KRT80
- Bottom (% KRT80 mRNA, four-parameter fit) (KRT80 mRNA; A549): 1.487%
- HillSlope (KRT80 mRNA) (KRT80 mRNA; A549): -1.195
- Top (% KRT80 mRNA, four-parameter fit) (KRT80 mRNA; A549): 88.72%
- % KRT80 mRNA (KRT80 mRNA; A549, conc 1e-10 mol/l): 68.3704%
- % KRT80 mRNA (KRT80 mRNA; A549, conc 3.2e-10 mol/l): 113.907%
- % KRT80 mRNA (KRT80 mRNA; A549, conc 1e-9 mol/l): 83.7736%
- % KRT80 mRNA (KRT80 mRNA; A549, conc 1.6e-9 mol/l): 68.0813%
- % KRT80 mRNA (KRT80 mRNA; A549, conc 8e-9 mol/l): 32.1733%
- % KRT80 mRNA (KRT80 mRNA; A549, conc 1e-8 mol/l): 59.5378%
- % KRT80 mRNA (KRT80 mRNA; A549, conc 4e-8 mol/l): 6.155%
- % KRT80 mRNA (KRT80 mRNA; A549, conc 1e-7 mol/l): 5.176%
- % KRT80 mRNA (KRT80 mRNA; A549, conc 2e-7 mol/l): 3.074%
- % KRT80 mRNA (KRT80 mRNA; A549, conc 1e-6 mol/l): 3.879% and 3.0631%
- EC50 (KRT80 mRNA; A549, read-out: EC50 (KRT80 mRNA)): 8.27 nM
- EC50 (KRT80 mRNA; A549, read-out: LogEC50 (KRT80 mRNA) (converted)): 8.26 nM
- EC50 (KRT80 mRNA; NCI-H1568, read-out: EC50 (KRT80 mRNA)): 9.77 nM
- EC50 (KRT80 mRNA; NCI-H1568, read-out: LogEC50 (KRT80 mRNA) (converted)): 9.77 nM
- Bottom (% KRT80 mRNA, four-parameter fit) (KRT80 mRNA; NCI-H1568): 16.16%
- Top (% KRT80 mRNA, four-parameter fit) (KRT80 mRNA; NCI-H1568): 89.57%
- % KRT80 mRNA (KRT80 mRNA; NCI-H1568, conc 1e-10 mol/l): 84.6925%
- % KRT80 mRNA (KRT80 mRNA; NCI-H1568, conc 1.6e-9 mol/l): 88.1629%
- % KRT80 mRNA (KRT80 mRNA; NCI-H1568, conc 8e-9 mol/l): 95.8588%
- % KRT80 mRNA (KRT80 mRNA; NCI-H1568, conc 1e-8 mol/l): 27.1635%
- % KRT80 mRNA (KRT80 mRNA; NCI-H1568, conc 4e-8 mol/l): 13.5152%
- % KRT80 mRNA (KRT80 mRNA; NCI-H1568, conc 1e-7 mol/l): 10.7775%
- % KRT80 mRNA (KRT80 mRNA; NCI-H1568, conc 2e-7 mol/l): 11.1934%
- % KRT80 mRNA (KRT80 mRNA; NCI-H1568, conc 1e-6 mol/l): 17.4529% and 27.8788%
- SMARCA2 degradation, % DMSO (SMARCA2; SuppFig3a, 1 nM, per replicate): 73.2377 % DMSO and 115.98 % DMSO and 86.1519 % DMSO
- smarca2/actin norm to DMSO (SMARCA2; SuppFig3a, 1 nM, per replicate): 0.7324 and 1.1598 and 0.8615
- SMARCA2 degradation, % DMSO (SMARCA2; [2]): 22.5404 % DMSO and 46.107 % DMSO and 14.5628 % DMSO
- smarca2/actin norm to DMSO (SMARCA2; [2]): 0.2254 and 0.4611 and 0.1456
- SMARCA2 degradation, % DMSO (SMARCA2; [3]): 4.651 % DMSO and 9.376 % DMSO and 28.142 % DMSO
- smarca2/actin norm to DMSO (SMARCA2; [3]): 0.04651 and 0.09376 and 0.2814
- SMARCA2 degradation, % DMSO (SMARCA2; [4]): 10.8582 % DMSO and 28.1242 % DMSO and 17.6912 % DMSO
- smarca2/actin norm to DMSO (SMARCA2; [4]): 0.1086 and 0.2812 and 0.1769
- SMARCA2 - combination with inhibitors, % DMSO (SMARCA2; [5]): 144.315 % DMSO and 128.607 % DMSO and 88.3654 % DMSO
- smarca2/actin norm to DMSO (SMARCA2; [5]): 1.443 and 1.286 and 0.8837
- SMARCA2 - combination with inhibitors, % DMSO (SMARCA2; [6]): 71.7463 % DMSO and 98.6474 % DMSO and 62.3416 % DMSO
- smarca2/actin norm to DMSO (SMARCA2; [6]): 0.7175 and 0.9865 and 0.6234
- SMARCA2 - combination with inhibitors, % DMSO (SMARCA2; [7]): 15.1306 % DMSO and 12.518 % DMSO and 13.0375 % DMSO
- smarca2/actin norm to DMSO (SMARCA2; [7]): 0.1513 and 0.1252 and 0.1304

Reference: publication PMC9551036, “A selective and orally bioavailable VHL-recruiting PROTAC achieves SMARCA2 degradation in vivo” (Nature Communications, 2022)
